The record followed here is patent US5223488A, “Oxidized-type glutathione alkyl ester” (Senju Pharmaceutical Company, Ltd., priority 1990, dated 1993).

Read-outs that look alike come from different tables or passages of the source.

This test concerns acetaminophen-induced liver disorder. As to the kind of experiment: Suppressive effect on acetaminophen-induced liver disorder in the rat (s-GOT, s-GPT). The following applies: for inhibition at 102 mg/kg: Rattus norvegicus; for inhibition at 102 mg/kg / inhibition rate of s-GOT / inhibition rate of s-GPT: versus 5% gum arabic control; for s-GOT / s-GPT: male Wistar rats, blood 24 h later, mean ± S.E. (n=4-8). In kind it is in vivo. As to the method: Male Wistar rats with a body weight of about 180 g were fasted for 24 hours and orally administered, through a cannula for oral administration, 87-349 mg of oxidized-type glutathione isopropyl ester (hereinafter also referred to as "GSSG isopropyl"), which is one of the compounds of the present invention, 102 mg of reduced-type glutathione isopropyl ester 1/2 H2 SO4.1/2H2 O (87 mg as reduced type glutathione isopropyl ester (hereinafter also referred to as "GSH isopropyl")) or 5% gum arabic solution as a control, respectively. 1 hour later, 400 mg/kg of acetaminophen, a compound which may induce disorders in the liver, was intra peritoneally administered. 24 hours later, the rats were anesthetized with pentobarbital and the blood was collected from the abdominal aorta, and s-GOT and s-GPT were measured to compare the hepatic disorder suppressing effect of GSSG isopropyl with that of GSH isopropyl.

The mark [1] stands for this setting: 102 mg/kg [0.25 mmol/kg] oral 1 h before acetaminophen 400 mg/kg i.p.
Where [2] appears, read: 87 mg/kg [0.125 mmol/kg] oral 1 h before acetaminophen 400 mg/kg i.p.
Where [3] appears, read: 174 mg/kg [0.25 mmol/kg] oral 1 h before acetaminophen 400 mg/kg i.p.
Where [4] appears, read: 349 mg/kg [0.5 mmol/kg] oral 1 h before acetaminophen 400 mg/kg i.p.

For orientation: inhibition means the drop in the measured response relative to a control, in per cent. For `CC(C)OC(=O)CNC(=O)[C@H](CS)NC(=O)CC[C@H](N)C(=O)O.O=S(=O)(O)O` [GSH isopropyl sulfate, γ-L-glutamyl-L-cysteinylglycine isopropyl ester sulfate, reference compound], for the setting “102 mg/kg oral, acetaminophen-treated rats”, the “elevation of s-GOT and s-GPT” value was “significantly suppresses”. The inhibition at 102 mg/kg (102 mg/kg oral, read-out: inhibition rate of s-GOT) is 94.5%. The inhibition at 102 mg/kg (102 mg/kg oral, read-out: inhibition rate of s-GPT) amounted to 94.4%. Under setting [1], the s-GOT was found to be 475 ± 156 IU/1 and the s-GPT is reported as 253 ± 97 IU/1.
Take “γ-L-GLUTAMYL-L-CYSTEI[…] ESTER DISULFIDE [GSSG isopropyl]”: the “hepatic disorder suppressing effect compared with 102 mg/kg of GSH isopropyl sulfate” value (87 mg/kg oral, acetaminophen-treated rats) was “almost equivalent”. The “inhibition rate of s-GOT” value by setting is: (87 mg/kg oral) 95.0; (174 mg/kg oral) 95.9; (349 mg/kg oral) 98.6. For the same compound, the “inhibition rate of s-GPT” value by setting is: (87 mg/kg oral) 94.9; (174 mg/kg oral) 96.6; (349 mg/kg oral) 99.1. Also, the “elevation of s-GOT and s-GPT” value (87-349 mg/kg oral, acetaminophen-treated rats) is listed as “significantly suppressed dose-dependently”. In addition, the s-GOT is 430 ± 236 IU/1 under setting [2], 352 ± 104 IU/1 under setting [3] and 119 ± 11 IU/1 under setting [4]. The s-GPT is 231 ± 152 IU/1 under setting [2], 154 ± 46 IU/1 under setting [3] and 39 ± 3 IU/1 under setting [4].
